# Laboratory results reported in ChEMBL document CHEMBL3714732, “Small molecule modulators of g protein-coupled receptor six” (2001).
# Legend:
# Type in all cases: functional
# [1] = target: T1, G-protein coupled receptor 6 (Homo sapiens, UniProt P46095); assay: Inverse agonist activity at rat G-protein GSalpha fused GPR6 (unknown origin) expressed in HEK293 cell membranes assessed as cAMP accumulation pre-incubated for 30 mins by microbeta plate reader based assay
# [2] = target: T1, G-protein coupled receptor 6; assay: Inverse agonist activity at rat G-protein GSalpha fused GPR6 (unknown origin) expressed in HEK293 cell membranes assessed as effect on [35S]GTPgammaS binding pre-incubated for 5 to 10 mins followed by 60 mins incubation in presence of [35S]GTPgammaS by scintillation proximity assay
# Rattus norvegicus [3] = assay: Reduction in food intake in 24 hrs food-deprived Sprague-Dawley rat assessed as food intake level at 100 umol/kg, po followed by standard chow pellets feeding and measured 8 hrs post dose (reference value: 14 to 14.5g)
# Rattus norvegicus [4] = assay: Reduction in water intake in 24 hrs food-deprived Sprague-Dawley rat assessed as water intake level at 100 umol/kg, po followed by standard chow pellets feeding and measured 6 hrs post dose (reference value: 19.25 to 22.9g)
# Rattus norvegicus [5] = assay: Reduction in body weight gain in 24 hrs food-deprived Sprague-Dawley rat assessed as body weight at 100 umol/kg, po followed by standard chow pellets feeding and measured 8 hrs post dose (reference value: 19.5g)
# Rattus norvegicus [6] = assay: Reduction in food intake in 24 hrs food-deprived Sprague-Dawley rat assessed as food intake level per 2 hrs at 100 umol/kg, po followed by standard chow pellets feeding and measured 8 hrs post dose (reference value: 2 to 2.5g/2 hrs)
# Rattus norvegicus [7] = assay: Reduction in water intake in 24 hrs food-deprived Sprague-Dawley rat assessed as water intake level at 100 umol/kg, po followed by standard chow pellets feeding and measured 8 hrs post dose (reference value: 19g)
# Rattus norvegicus [8] = assay: Reduction in body weight gain in 24 hrs food-deprived Sprague-Dawley rat assessed as body weight gain level at 100 umol/kg, po followed by standard chow pellets feeding and measured 6 hrs post dose (reference value: 20.3g)
# Rattus norvegicus [9] = assay: Reduction in body weight gain in 24 hrs food-deprived Sprague-Dawley rat assessed as body weight gain level at 100 umol/kg, po followed by standard chow pellets feeding and measured 6 hrs post dose (reference value: 19.25 to 20.3g)
# T1 sequence (P46095 whole entry, the tested form may be a part): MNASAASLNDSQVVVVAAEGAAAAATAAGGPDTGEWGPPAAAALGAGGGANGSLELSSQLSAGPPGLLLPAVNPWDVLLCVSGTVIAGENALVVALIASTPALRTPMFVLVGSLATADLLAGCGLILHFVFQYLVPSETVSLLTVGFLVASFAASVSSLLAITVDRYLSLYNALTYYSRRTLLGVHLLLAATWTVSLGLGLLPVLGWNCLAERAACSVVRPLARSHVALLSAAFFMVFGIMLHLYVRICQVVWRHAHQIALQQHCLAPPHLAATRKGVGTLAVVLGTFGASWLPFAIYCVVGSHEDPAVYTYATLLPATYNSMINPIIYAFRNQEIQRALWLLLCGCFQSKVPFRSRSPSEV
compound,measurement,setting,value
COc1ccc(C(=O)/N=C2\SSC3=NCCN32)cc1,IC50,[1],210 nM
same,IC50,[2],830 nM
O=C(/N=C1\SSC2=NCCN21)c1cc2ccccc2s1,Activity,Rattus norvegicus [3],9.6 g
same,IC50,[1],190 nM
same,Activity,Rattus norvegicus [4],20 g
same,Activity,Rattus norvegicus [5],14 g
same,Activity,Rattus norvegicus [6],1 g
same,IC50,[2],130 nM
same,Activity,Rattus norvegicus [7],19 g
O=C(/N=C1\SSC2=NCCN21)c1ccno1,IC50,[1],100 nM
same,IC50,[2],330 nM
O=C(/N=C1\SSC2=NCCN21)c1ccccc1,IC50,[1],170 nM
same,Activity,Rattus norvegicus [8],6.18 g
same,IC50,[2],440 nM
O=C(NC(=S)N1CCNC1=S)c1ccno1,IC50,[1],5830 nM
same,IC50,[2],2430 nM
O=C(NC(=S)N1CCNC1=S)c1cnn(-c2ccc(Cl)cc2)c1C(F)(F)F,IC50,[1],200000 nM
same,IC50,[2],200000 nM
O=C(/N=C1\SSC2=NCCN21)c1ccco1,IC50,[1],110 nM
same,IC50,[2],250 nM
O=C(/N=C1\SSC2=NCCN21)c1ccc2ccccc2c1,Activity,Rattus norvegicus [3],9 g
same,IC50,[1],170 nM
same,Activity,Rattus norvegicus [9],11 g
same,Activity,Rattus norvegicus [5],11 g
same,Activity,Rattus norvegicus [6],1 g
same,IC50,[2],170 nM
same,Activity,Rattus norvegicus [7],4 g
COc1cccc(C(=O)/N=C2\SSC3=NCCN32)c1,IC50,[1],400 nM
same,IC50,[2],310 nM
CC(C)(C)c1ccc(C(=O)NC(=S)N2CCNC2=S)cc1,IC50,[2],200000 nM
O=C(/N=C1\SSC2=NCCN21)c1ccc(Cl)cc1,Activity,Rattus norvegicus [3],9.88 g
same,IC50,[1],270 nM
same,Activity,Rattus norvegicus [9],11.4 g
same,Activity,Rattus norvegicus [4],18.5 g
same,IC50,[2],640 nM
CSc1ncccc1C(=O)NC(=S)N1CCNC1=S,IC50,[2],200000 nM
O=C(NC(=S)N1CCNC1=S)c1ccc2ccccc2c1,Activity,Rattus norvegicus [5],19.5 g
same,Activity,Rattus norvegicus [6],2.5 g
same,Activity,Rattus norvegicus [7],19 g
